# From PMC11998009, “Identification of a New FtsZ Inhibitor by Virtual Screening, Mechanistic Insights, and Structure–Activity Relationship Analyses” (ACS Infectious Diseases, 2025)
# Where two headings read alike, the source gives them in different places.
# What was measured:
# S. aureus ATCC25923 [1] = test: MIC determination by 2-fold microdilution, resazurin method; assay type: cell-based, Staphylococcus aureus; details: S. aureus ATCC25923, single drug; for MIC: Staphylococcus aureus
# [2] = molecular target: T1, S. aureus FtsZ protein (FtsZSa) (Staphylococcus aureus, UniProt P0A031); test: In vitro FtsZ GTPase activity (PK/LDH coupled assay); assay type: biochemical; design: Residual GTPase activity: concentration or dose not given beside the values; details: S. aureus FtsZ protein
# T1 construct: made in house; host or cells: Escherichia coli BL21DE3
# T1 sequence (P0A031 1-390): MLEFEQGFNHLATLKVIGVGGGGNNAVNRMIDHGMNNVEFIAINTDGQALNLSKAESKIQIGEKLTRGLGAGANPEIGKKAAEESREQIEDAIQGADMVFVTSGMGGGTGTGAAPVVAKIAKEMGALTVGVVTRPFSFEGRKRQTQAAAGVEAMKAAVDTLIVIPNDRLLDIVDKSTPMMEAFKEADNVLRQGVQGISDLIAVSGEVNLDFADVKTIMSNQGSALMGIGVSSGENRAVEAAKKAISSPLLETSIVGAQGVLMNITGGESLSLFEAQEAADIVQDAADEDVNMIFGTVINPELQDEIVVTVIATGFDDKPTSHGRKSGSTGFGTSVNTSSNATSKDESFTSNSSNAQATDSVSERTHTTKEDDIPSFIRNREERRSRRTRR
# Method: In vitro FtsZ GTPase activity
# FtsZSa and FtsZPa were expressed and purified as previously described.13,14 GTPase activity was assayed at 30°C using a pyruvate kinase–L-lactic dehydrogenase (PK/LDH) spectrophotometric coupled assay, as previously described15 with minor modification. The reaction mixture was first set up to contain 50 mM MES […]
# phosphoenolpyruvate, and 4.8 μM of FtsZ. The assay was initiated by the addition of 1 mM GTP. The experiments were performed in triplicate. The inhibitory concentration that reduced the enzymatic activity by half (IC50) was determined using Prism 10. […]
# FtsZSa [3] = molecular target: T2, FtsZSa (Staphylococcus aureus, UniProt P0A031); test: FtsZSa polymerization, sedimentation assay; details: sedimentation assay of C11 derivatives
# T2 sequence (P0A031 1-390): T1 sequence (P0A031 1-390)
# FtsZSa [4] = molecular target: T2, FtsZSa; test: FtsZSa polymerization, 90° light scattering
# S. aureus ATCC25923 [5] = test: Checkerboard assay of C11 with antibiotics; assay type: cell-based; details: antibiotic combined with C11
# [6] = tested on: S. aureus cystic fibrosis clinical isolates; test: MIC for CF clinical isolates; assay type: cell-based
# mammalian tubulin = test: Tubulin polymerization assay, fluorescence based; assay type: biochemical; details: 10 μM; DMSO control 3.78
# S. aureus = details: cited from earlier work
# [7] = tested on: Mycobacterium tuberculosis; design: method as in PMID 21126020; details: cited from earlier work
compound,measurement,setting,value
COC(=O)c1ccc(CSc2ccc(-c3ccc4c(c3)OCO4)nn2)o1 [C1],MIC S. aureus,S. aureus ATCC25923 [1],≥ 256 µg/mL
same,Residual GTPase activity,[2],78.5%
CC(O)c1ccc(C2(CNC(=O)c3ccc(C(F)(F)F)nc3)CCCC2)s1 (centres unmarked) [C2],MIC S. aureus,S. aureus ATCC25923 [1],≥ 256 µg/mL
same,Residual GTPase activity,[2],35.5%
COc1ccccc1-c1cc(C(=O)NCC(N)=O)[nH]n1 [C5],MIC S. aureus,S. aureus ATCC25923 [1],≥ 256 µg/mL
same,Residual GTPase activity,[2],95.3%
NC(=O)c1cc(OC2CN(C(=O)Nc3ccccc3F)C2)ccn1 [C6],MIC S. aureus,S. aureus ATCC25923 [1],≥ 256 µg/mL
same,Residual GTPase activity,[2],92.8%
COc1ccc(CC(=O)Nc2cccc(C(N)=O)c2)cc1 [C8],MIC S. aureus,S. aureus ATCC25923 [1],≥ 256 µg/mL
same,IC50,[2],8.4 µM
same,Residual GTPase activity,[2],11.8%
Cc1ccc(-c2nnc(Nc3cccc(O)c3)c3ccccc23)cc1S(N)(=O)=O [C9],MIC S. aureus,S. aureus ATCC25923 [1],≥ 256 µg/mL
same,Residual GTPase activity,[2],34.3%
O=C(Oc1ccc(NC2=NS(=O)(=O)c3ccccc32)cc1)c1ccccc1 [C11.1],MIC,S. aureus ATCC25923 [1],≥ 128 µg/mL
same,Activity on FtsZSa polymerization,FtsZSa [3],mild activity
same,IC50,FtsZSa [4],71.7 µM
O=S1(=O)C=C(Sc2nnc(-c3ccccc3)o2)c2ccccc21 [C11.2],MIC,S. aureus ATCC25923 [1],8 µg/mL
same,IC50,FtsZSa [4],23.7 µM
O=S1(=O)N=C(Nc2nc3c(s2)CCCC3)c2ccccc21 [C11.3],MIC,S. aureus ATCC25923 [1],≥ 128 µg/mL
CCOc1ccc(NC(=O)CN2C(=O)c3ccccc3S2(=O)=O)cc1 [C11.4],MIC,S. aureus ATCC25923 [1],≥ 128 µg/mL
same,IC50,FtsZSa [4],41.9 µM
O=S1(=O)N=C(Nc2nc(-c3ccccc3)cs2)c2ccccc21 [C11.5],MIC S. aureus,S. aureus ATCC25923 [1],≥ 128 µg/mL
same,MIC,S. aureus ATCC25923 [1],≥ 128 µg/mL
same,IC50,FtsZSa [4],34.6 µM
O=C(c1ccco1)N1CCN(C2=NS(=O)(=O)c3ccccc32)CC1 [C11.6],MIC,S. aureus ATCC25923 [1],≥ 128 µg/mL
CCc1sc(NC2=NS(=O)(=O)c3ccccc32)nc1-c1ccccc1 [C11.7],MIC S. aureus,S. aureus ATCC25923 [1],8 µg/mL
same,MIC,S. aureus ATCC25923 [1],8 µg/mL
same,IC50,FtsZSa [4],29.4 µM
Cc1occc1-c1nnc(SC2=CS(=O)(=O)c3ccccc32)o1 [C11.8],MIC,S. aureus ATCC25923 [1],128 µg/mL
same,IC50,FtsZSa [4],41.6 µM
O=S1(=O)N=C(Nc2nnc(SCc3ccccc3Cl)s2)c2ccccc21 [C11.9],MIC,S. aureus ATCC25923 [1],128 µg/mL
O=C(CSc1nnc(NC2=NS(=O)(=O)c3ccccc32)s1)Nc1ccc(Cl)cc1 [C11.10],MIC,S. aureus ATCC25923 [1],≥ 128 µg/mL
Cc1ccc(-c2nnc(SC3=CS(=O)(=O)c4ccccc43)o2)cc1 [C11.11],MIC,S. aureus ATCC25923 [1],≥ 128 µg/mL
O=C(CN1C(=O)c2ccccc2S1(=O)=O)Nc1nc(-c2ccccc2)cs1 [C11.12],MIC,S. aureus ATCC25923 [1],≥ 128 µg/mL
"CC(C)(O/N=C(\C(=O)N[C@@H]1C(=O)N2C(C(=O)[O-])=C(C[n+]3ccccc3)CS[C@H]12)c1csc(N)n1)C(=O)O [Ceftazidime, reference compound]",MIC,S. aureus ATCC25923 [1],16 µg/mL
same,Effect of the combination with C11,S. aureus ATCC25923 [5],synergistic effect
"CC[C@H]1OC(=O)[C@H](C)[C@@H](O[C@H]2C[C@@](C)(OC)[C@@H](O)[C@H](C)O2)[C@H](C)[C@@H](O[C@@H]2O[C@H](C)C[C@H](N(C)C)[C@H]2O)[C@](C)(O)C[C@@H](C)C(=O)[C@H](C)[C@@H](O)[C@]1(C)O [Erythromycin, reference compound]",MIC,S. aureus ATCC25923 [1],0.5 µg/mL
same,Effect of the combination with C11,S. aureus ATCC25923 [5],additive effect
"CC(=O)NC[C@H]1CN(c2ccc(N3CCOCC3)c(F)c2)C(=O)O1 [Linezolid, reference compound]",MIC,S. aureus ATCC25923 [1],2 µg/mL
same,Effect of the combination with C11,S. aureus ATCC25923 [5],additive effect
"C[C@@H](O)[C@H]1C(=O)N2C(C(=O)O)=C(S[C@@H]3CN[C@H](C(=O)N(C)C)C3)[C@H](C)[C@H]12 [Meropenem, reference compound]",MIC,S. aureus ATCC25923 [1],0.25 µg/mL
same,MIC,"[6]; S. aureus BG8 MRSA, single drug",2 µg/mL
same,MIC,"[6]; S. aureus BG10 MRSA, single drug",16 µg/mL
same,MIC,"[6]; Staphylococcus aureus, MRSA, S. aureus BG6 MRSA, read-out: MIC",4 µg/mL
same,MIC,"[6]; Staphylococcus aureus, MRSA, S. aureus BG7 MRSA smv, read-out: MIC",2 µg/mL
same,MIC,"[6]; Staphylococcus aureus, MRSA, S. aureus BG8 MRSA, single drug, read-out: MIC",2 µg/mL
same,MIC,"[6]; Staphylococcus aureus, MRSA, S. aureus BG10 MRSA, single drug, read-out: MIC",16 µg/mL
same,MIC,"[6]; Staphylococcus aureus, S. aureus BG1, read-out: MIC",0.5 µg/mL
same,MIC,"[6]; Staphylococcus aureus, S. aureus BG2, read-out: MIC",0.5 µg/mL
same,MIC,"[6]; Staphylococcus aureus, S. aureus BG3, read-out: MIC",0.25 µg/mL
same,MIC,"[6]; Staphylococcus aureus, S. aureus BG4, read-out: MIC",0.25 µg/mL
same,MIC,"[6]; Staphylococcus aureus, S. aureus BG5, read-out: MIC",0.25 µg/mL
same,Effect of the combination with C11,S. aureus ATCC25923 [5],synergistic effect
"CC(=O)O[C@H]1C(=O)[C@@]2(C)[C@H]([C@H](OC(=O)c3ccccc3)[C@]3(O)C[C@H](OC(=O)[C@H](O)[C@@H](NC(=O)c4ccccc4)c4ccccc4)C(C)=C1C3(C)C)[C@]1(OC(C)=O)CO[C@@H]1C[C@@H]2O [Paclitaxel, paclitaxel, reference compound]",Vmax of tubulin polymerization,mammalian tubulin,21.45 mOD/min
"CO[C@H]1/C=C/O[C@@]2(C)Oc3c(C)c(O)c4c(O)c(c(/C=N/N5CCN(C)CC5)c(O)c4c3C2=O)NC(=O)/C(C)=C\C=C\[C@H](C)[C@H](O)[C@@H](C)[C@@H](O)[C@@H](C)[C@H](OC(C)=O)[C@@H]1C [Rifampicin, reference compound]",MIC,S. aureus ATCC25923 [1],0.03 µg/mL
same,Effect of the combination with C11,S. aureus ATCC25923 [5],synergistic effect
NC(=O)c1c(F)ccc(OCc2nc3cc(C(F)(F)F)cnc3s2)c1F [TX707],MIC S. aureus,S. aureus; ref 19−22,0.25 to 2 µg/mL
CN1CCC(C(=O)NC(=O)c2c(F)ccc(OCc3nc4cc(C(F)(F)F)cnc4s3)c2F)CC1 [TX709],MIC S. aureus,S. aureus; ref 19−22,2 to 4 µg/mL
"CN(C)[C@@H]1C(O)=C(C(N)=O)C(=O)[C@@]2(O)C(O)=C3C(=O)c4c(O)cccc4[C@@](C)(O)[C@H]3C[C@@H]12 [Tetracycline, reference compound]",MIC,S. aureus ATCC25923 [1],0.5 µg/mL
same,Effect of the combination with C11,S. aureus ATCC25923 [5],additive effect
O=C(Oc1cc(OC(=O)c2ccc(O)c(Cl)c2)c2ccccc2c1)c1ccc(O)c(Cl)c1 [UCM53],MIC S. aureus,S. aureus; ref 15−17,2 to 8 µg/mL
Benzimidazole,MIC Mtb H3tRv,[7],0.39 µg/mL
